Laboratory results from paper PMC8341105, “Mapping the energy landscape of protein–ligand binding via linear free energy relationships determined by protein NMR relaxation dispersion” (RSC Chemical Biology, 2020).
Several values for one entry are separate records, joined by “and”; a condition that tells them apart may be missing. Equal values may be shown once. Read-outs that look alike come from different tables or passages of the source.

How the values were obtained:
galectin-3C [1] = target: T1, galectin-3C (Homo sapiens, UniProt P17931); test: 15N CPMG relaxation dispersion of ligand binding kinetics; conditions: for kex, Group 1: Group 1 residues fitted jointly: slow exchange corresponding to ligand binding/unbinding; for kex, Group 2: Group 2 residues fitted jointly: fast conformational exchange independent of ligand binding/unbinding; for Population (relative population of the bound state, pB), Group 1: global fit of Group 1 residues, near-saturated NMR sample
T1 construct: the carbohydrate-recognition domain of galectin-3 (galectin-3C); made in house
T1 sequence (P17931 118-248 limits assumed): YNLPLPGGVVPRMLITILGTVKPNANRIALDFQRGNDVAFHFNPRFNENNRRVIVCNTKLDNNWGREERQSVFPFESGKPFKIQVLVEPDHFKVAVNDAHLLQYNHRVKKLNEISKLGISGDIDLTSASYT
Excerpt: We measured equilibrium exchange between free and ligand-bound states of galectin-3C using ^15N CPMG relaxation dispersion experiments[15] acquired on near-saturated samples at two static magnetic field strengths. […] We analyzed the relaxation dispersion profiles using a two-state exchange model (eqn (1)–(4)).[18,27,28] […] All residues within a given group were then fitted jointly to yield global exchange parameters, kex and p, and residue-specific ΔδCPMG (ESI, ^† Table S1 lists all residues included in the fit for the two groups of each complex together with the fitted parameters). In the following, we focus on the exchange related to ligand binding and release.
In the present case, we determined all exchange parameters directly from the relaxation dispersion data. […] This requires that the ligand and protein concentrations are measured accurately, Kd is known from previous experiments, and the NMR spectra of the free and bound states are available; these requirements are easily met in most cases. While the amplitude and shape of the relaxation dispersion profile depends intricately on the populations, rates, and chemical shift difference, it may be expected that off-rates can be determined for systems with dissociation constants in the range of 0.1 μM to 1 mM.
^15N-Labeled galectin-3C samples were prepared by extensive dialysis (Slide-A-Lyzer MINI Dialysis, ThermoScientific) against 5 mM 4-(2-hydroxyethyl)-1-piperazinethanesulfonic acid (HEPES) buffer to remove all lactose, followed by centrifugation at 14 000 rpm for 5 minutes to remove any aggregates. The protein concentration was determined by UV absorption at 280 nm, as described before.[33] […] Ligand–galectin-3C complexes were prepared by titrating freshly sonicated stock solutions of the ligands into apo galectin-3C samples while monitoring the galectin-3C chemical shifts in the ^15N heteronuclear single-quantum correlation (HSQC) spectrum. At the end of each titration, the total amount of added DMSO in the L2 and L3 samples was 2% (v/v).
Relaxation-compensated CPMG relaxation dispersion experiments[15] were performed using the constant-time approach[34] covering 18–24 different refocusing frequencies, νcp. An equilibration period of 5 ms was added prior to the CPMG refocusing pulse train to ensure that the initial magnetizations reflect the relative populations of the exchanging states.[35] […] Spectra were processed using NMRPipe.[37] The processing protocol involved a solvent filter, cosine-squared apodization functions, zero filling to twice the number of increments in all dimensions, and a polynomial baseline correction in the ^1H dimension. Relaxation rates were extracted using PINT, which employs line-shape fitting to resolve overlapped peaks.[38] Peak intensities were evaluated using a weighted sum of Lorentzian and Gaussian line shapes. Standard deviations were determined by propagating the errors of intensities estimated from the baseplane noise. Error estimates are reported as one standard deviation.
The relaxation dispersion data were analyzed using CPMGfit v2.22, an in-house Matlab program.

galectin-3C [2] = target: T1, galectin-3C; parameters: method as in PMID 20873837; conditions: ITC under sample conditions near-identical to those used for CPMG dispersion experiments; determined previously; cited from earlier work
[3] = k on is determined from Kd and koff (kon = koff/Kd)
[4] = koff = kex(1 − pB), 15N CPMG relaxation dispersion, 301 K, near-saturated samples

Row | kex, Group 1 (galectin-3C [1]) | kex, Group 2 (galectin-3C [1]) | Population (relative population of the bound state, pB), Group 1 (galectin-3C [1]) | kon (galectin-3C [1]; k on is determined from Kd and koff (kon = koff/Kd), read-out: k on) | koff (galectin-3C [1]; koff = kex(1 − pB), 15N CPMG relaxation dispersion, 301 K, near-saturated samples, read-out: k off) | kon (galectin-3C [1]; [3]) | koff (galectin-3C [1]; [4]) | Compound | Kd (galectin-3C [2]) | koff (galectin-3C [1]) | kon (galectin-3C [1])
1 | 123 ± 20 s⁻¹ | 4110 ± 760 s⁻¹ | 0.93–0.94 and 0.94 ± 0.01 | – | – | 2.4 ± 0.4 10^6 M^−1 s^−1 | 8 ± 1 s⁻¹ | 3′-(4-methoxy-2,3,5,6-tetrafluorobenzamido)-N-acetyllactosamine [Ligand L3] | 3.3 ± 0.1 µM | – | –
2 | 385 ± 126 s⁻¹ | 5370 ± 850 s⁻¹ | 0.93–0.94 and 0.93 ± 0.04 | – | – | 1.6 ± 0.5 10^6 M^−1 s^−1 | 28 ± 9 s⁻¹ | 3′-benzamido-N-acetyllactosamine [Ligand L2] | 18.2 ± 0.2 µM | – | –

Further lines, the compound ahead of its results:

Row | Compound | kex, Group 1 (galectin-3C [1]) | kex, Group 2 (galectin-3C [1]) | Population (relative population of the bound state, pB), Group 1 (galectin-3C [1]) | kon (galectin-3C [1]; k on is determined from Kd and koff (kon = koff/Kd), read-out: k on) | koff (galectin-3C [1]; koff = kex(1 − pB), 15N CPMG relaxation dispersion, 301 K, near-saturated samples, read-out: k off) | kon (galectin-3C [1]; [3]) | koff (galectin-3C [1]; [4]) | Kd (galectin-3C [2]) | koff (galectin-3C [1]) | kon (galectin-3C [1])
3 | OC[C@H]1O[C@@H](S[C@@H]2O[C@H](CO)[C@@H](O)[C@H](O)[C@H]2O)[C@H](O)[C@@H](n2cc(-c3ccccc3F)nn2)[C@H]1O [oL4, ortho-fluoro-phenyltriazolyl-galactosylthioglucoside] | 1210 ± 209 s⁻¹ | 15800 ± 386 s⁻¹ | 0.97 ± 0.01 | 4.4e+06 ± 1.1e+06 M⁻¹ s⁻¹ | 32 ± 5 s⁻¹ | – | – | – | – | –
4 | OC[C@H]1O[C@@H](S[C@@H]2O[C@H](CO)[C@@H](O)[C@H](O)[C@H]2O)[C@H](O)[C@@H](n2cc(-c3ccc(F)cc3)nn2)[C@H]1O [pL4, para-fluoro-phenyltriazolyl-galactosylthioglucoside] | 859 ± 115 s⁻¹ | 8386 ± 691 s⁻¹ | 0.99 ± 0.01 | – | – | – | – | 2.5 ± 0.3 µM | 13 ± 1 s⁻¹ | 5.2e+06 ± 800000 M⁻¹ s⁻¹
5 | OC[C@H]1O[C@@H](S[C@@H]2O[C@H](CO)[C@@H](O)[C@H](O)[C@H]2O)[C@H](O)[C@@H](n2cc(-c3cccc(F)c3)nn2)[C@H]1O [mL4, meta-fluoro-phenyltriazolyl-galactosylthioglucoside] | 808 ± 55 s⁻¹ | 4804 ± 448 s⁻¹ | – | – | – | – | – | – | 8 ± 1 s⁻¹ | 3.9e+06 ± 700000 M⁻¹ s⁻¹
